Positions count from the first letter of the chain named.
What was measured:
FLT3 ITD = target: T1, FLT3 ITD (Homo sapiens, UniProt P36888); assay: DiscoverX KINOMEscan competition binding, FLT3 ITD; conditions: no ATP
T1 construct: fused on or other part: DNA tag for qPCR read-out (T7 phage fusion, or DNA-tagged kinase made in HEK-293 cells)
T1 sequence (P36888 1-993): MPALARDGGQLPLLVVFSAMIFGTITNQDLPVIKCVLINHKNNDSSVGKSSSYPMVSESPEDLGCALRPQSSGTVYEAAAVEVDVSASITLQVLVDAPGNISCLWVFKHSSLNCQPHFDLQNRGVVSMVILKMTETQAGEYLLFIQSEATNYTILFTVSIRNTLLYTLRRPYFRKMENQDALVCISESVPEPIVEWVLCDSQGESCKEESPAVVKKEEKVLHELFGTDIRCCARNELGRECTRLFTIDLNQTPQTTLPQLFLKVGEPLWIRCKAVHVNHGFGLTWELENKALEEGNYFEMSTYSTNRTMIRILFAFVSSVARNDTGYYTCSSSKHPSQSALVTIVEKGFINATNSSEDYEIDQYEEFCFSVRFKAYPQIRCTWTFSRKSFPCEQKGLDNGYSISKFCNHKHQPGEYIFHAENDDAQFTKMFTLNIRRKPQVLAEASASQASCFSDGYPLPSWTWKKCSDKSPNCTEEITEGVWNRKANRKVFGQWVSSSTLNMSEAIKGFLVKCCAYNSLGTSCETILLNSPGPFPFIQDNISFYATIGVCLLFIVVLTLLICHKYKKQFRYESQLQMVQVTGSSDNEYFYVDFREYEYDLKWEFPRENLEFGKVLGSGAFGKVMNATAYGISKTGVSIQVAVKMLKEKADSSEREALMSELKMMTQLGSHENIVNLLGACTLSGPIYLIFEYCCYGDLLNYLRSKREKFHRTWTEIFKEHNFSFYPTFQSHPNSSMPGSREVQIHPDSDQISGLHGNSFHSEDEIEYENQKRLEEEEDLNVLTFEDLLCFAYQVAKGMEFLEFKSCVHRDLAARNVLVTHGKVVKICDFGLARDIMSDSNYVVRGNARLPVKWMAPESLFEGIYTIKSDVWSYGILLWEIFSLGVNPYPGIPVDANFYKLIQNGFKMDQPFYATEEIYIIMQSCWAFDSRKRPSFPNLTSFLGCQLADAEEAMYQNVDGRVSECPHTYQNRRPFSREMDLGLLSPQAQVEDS
Description: (§1) Kinase binding data were obtained for various exemplary compounds prepared according to Examples 2-15 using the DiscoverX KINOMEscan® active site-directed competition binding site-directed assay protocol described below. […] As a result, the data report thermodynamic interaction affinities (Kd values), rather than IC50 values that are dependent on ATP concentrations. The assay uses a DNA-tagged version of the protein kinase, and an immobilized ligand bound to a solid support. Compounds that directly or indirectly prevent kinase binding to the immobilized ligand reduce the amount of kinase captured on the solid support, which is detected using an ultra-sensitive qPCR method. Affinity constants reported from the assay have been reported to be independent of the immobilized ligand used that is coupled to the solid support (See supplemental information in Fabian, M. A. et. al., (2005) Nat. […] Wodicka, L. […] Biol. 17, 1241-1249.) Kinase-tagged T7 phage strains were prepared in an E. coli host derived from the BL21 strain. E. coli were grown to log-phase and infected with T7 phage and incubated with shaking at 32° C. until lysis. […] Kds were determined using an 11-point 3-fold compound dilution series with three DMSO control points. […] The kinase concentration in the eluates was measured by qPCR. Binding constants (Kds) were calculated with a standard dose-response curve using the Hill equation. […]

FLT3 ITD, F691L = target: T2, FLT3 ITD, F691L (Homo sapiens, UniProt P36888, F691L, form not given); assay: DiscoverX KINOMEscan competition binding, FLT3 ITD, F691L; conditions: no ATP
T2 construct: fused on or other part: DNA tag for qPCR read-out (T7 phage fusion, or DNA-tagged kinase made in HEK-293 cells)
T2 sequence (P36888 1-993 F691L): T1 sequence (P36888 1-993) with F691L
Description: as §1

COc1cc2ncc(-c3nc(N[C@H]4CNCC[C@@H]4F)c(F)cc3F)n2nc1C1CCC1 [Compound 15a, 6-(6-cyclobutyl-7-methoxyimidazo[1,2-b]pyridazin-3-yl)-3,5-difluoro-N-((3S,4S)-4-fluoropiperidin-3-yl)pyridin-2-amine]
Kd (FLT3 ITD): 430 pM
Kd (FLT3 ITD, F691L): < 170 pM

— patent publication US20250368648A1, “MULTI-CYCLIC IRAK AND FLT3 INHIBITING COMPOUNDS AND USES THEREOF” (CHILDREN'S HOSPITAL MEDICAL CENTER, priority 2022, published 2025)
